Values of other authors, collected in patent US20200254068A1, “METHODS FOR TREATING TRAUMATIC BRAIN INJURY” (LOMA LINDA UNIVERSITY, priority 2017, published 2020).

Conditions: given acutely, goal of reducing cerebral edema

Row | Compound | mortality rate in clinical TBI trials | outcome in clinical TBI trials
1 | C[C@@H]1C[C@H]2[C@@H]3CCC4=CC(=O)C=C[C@]4(C)[C@@]3(F)[C@@H](O)C[C@]2(C)[C@@]1(O)C(=O)CO [dexamethasone] | increase the mortality rate | 
2 | CC(=O)[C@H]1CC[C@H]2[C@@H]3CCC4=CC(=O)CC[C@]4(C)[C@H]3CC[C@]12C [progesterone] |  | unsuccessful
